Target: Nur77 (Homo sapiens, UniProt P22736)
Test: SPR
Type: binding

Chain of Nur77 (P22736 360-598 limits assumed): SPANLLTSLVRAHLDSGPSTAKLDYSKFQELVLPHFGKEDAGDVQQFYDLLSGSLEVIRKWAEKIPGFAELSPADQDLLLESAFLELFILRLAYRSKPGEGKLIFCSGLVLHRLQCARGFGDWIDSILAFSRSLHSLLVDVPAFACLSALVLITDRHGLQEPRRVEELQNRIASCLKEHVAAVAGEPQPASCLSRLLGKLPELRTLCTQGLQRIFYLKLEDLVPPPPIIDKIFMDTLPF

A Kd of 0.38 µM was found for `CCCCCCCC(=O)c1cc(OC)c(OC)c(OC)c1CC(=O)OCC` [TMPA] in this work.

Reference: publication PMC10935061 (Acta Pharmaceutica Sinica. B, 2023)
